For one data set, the system named is LoVo xenograft tumors. Format: in vivo. To be noted: 3.19.3 10 mg/kg 2×wk i.p., 5FU 100 mg/kg/week i.p., combination of both. The protocol:
(§1) The anti-tumor activity of 3.19.3 was evaluated in combination with 5-Fluoruracil (5FU) in the LoVo xenograft model of colorectal cancer. LoVo cells were cultured in flasks as routine until the cells reached sub-confluence. Cell suspensions containing approximately 3×10E6 cells were injected subcutaneously into the flank of female Swiss nude mice. When the tumor volume reached 200 mm^3, the mice were randomized in treatment groups of 8-10 mice and the treatments were initiated. 3.19.3 (10 mg/kg) in saline was injected intraperitoneally, twice per week for 2 weeks and 5-Flurouracil (100 mg/kg) was administered by intraperitoneal administration following a weekly schedule. The dimensions of each tumor and body weights were measured at least twice per week. The volume of the tumor was calculated as: Volume=Length×(Width)×0.5 (cm^3).

For data set [1], the system named is MDA-MB-231 xenograft tumors. The experiment in a line: MDA-MB-231 orthotopic breast cancer xenograft model. Format: in vivo. The note with it: 3.19.3 10 mg/kg 2×wk i.p., AZD6495 30 mg/kg bid p.o. 18 d, combination of both. On the procedure: The anti-tumor activity of the anti-Angiopoietin-2 monoclonal antibody 3.19.3 in combination with the small molecule CSF1R tyrosine kinase inhibitor AZD6495 was evaluated in a xenograft model of human breast carcinoma using the MDA-MB-231 cell line (FIG. 5a).
Breast adenocarcinoma MDA-MB-231 cells were cultured in flasks as routine until the cells reach sub-confluence. Immunodeficient 7-10 week old female nude mice were orthotopically implanted with 8×10^6 MDA-MB-231 cells suspended 1:1 in Matrigel into the mammary fat pad. The mice were then randomized into cohorts containing 10 mice once the tumors reached approximately 100 mm^3. The mice were treated by intraperitoneally (IP) injection with mAb 3.19.3 (10 mg/kg) twice per week for 3 weeks thereafter, or by oral administration of AZD6495 (30 mg/kg) following bid dosing for 18 days. […] The body weights of each animal, and the dimensions of each tumor were measured twice per week. The volume of the tumor was calculated as: Volume=Length×(Width)^2×0.5 cm^3, or by bilateral Vernier caliper measurement and, taking length to be the longest diameter across the tumor and width the corresponding perpendicular, calculated using the formula (π/6)×(length×width)×√(length×width). Growth inhibition from the start of treatment was assessed by comparison of the differences in tumor volume between control and treated groups.

The subject of a further data set is MCF7 xenograft tumors. The experiment in a line: MCF7 breast cancer xenograft model. It counts as in vivo. To be noted: 3.19.3 10 mg/kg 2×wk i.p., AZD6495 30 mg/kg bid p.o. 18 d, combination of both. On the procedure:
The anti-tumor activity of the anti-Angiopoietin-2 monoclonal antibody 3.19.3 in combination with the small molecule CSF1R tyrosine kinase inhibitor AZD6495 (4-[(2,4-difluorophenyl)amino]-7-ethoxy-6-(4-methylpiperazin-1-yl)quinoline-3-carboxamide) was evaluated in a xenograft model of human breast carcinoma using the MCF7 cell line (FIG. 4a).
Materials and Methods: Breast carcinoma MCF7 cells were cultured in flasks as routine until the cells reach sub-confluence. Immunodeficient 7-10 week old male NCr-nude mice were subcutaneously implanted with 8×10^6 MCF7 cells suspended 1:1 in Matrigel in the right flank. […]
The mice were then randomized into cohorts containing 15 mice once the tumors reached approximately 100 mm^3. […] The body weights of each animal, and the dimensions of each tumor were measured twice per week. The volume of the tumor was calculated as: Volume=Length×(Width)^2×0.5 cm^3, or by bilateral Vernier caliper measurement and, taking length to be the longest diameter across the tumor and width the corresponding perpendicular, calculated using the formula (π/6)×(length×width)×√(length×width). Growth inhibition from the start of treatment was assessed by comparison of the differences in tumor volume between control and treated groups.

Another data set deals with Calu6 xenograft tumors. It counts as in vivo. The note with it: 3.19.3 10 mg/kg 2×wk i.p., Docetaxel 15 mg/kg/week i.v., combination of both. On the procedure:
as §1, with “with Docetaxel” for “with 5-Fluoruracil (5FU)”, “the Calu6” for “the LoVo”, “of lung” for “of colorectal”, “cancer. Calu6” for “cancer. LoVo”, “2 weeks. Docetaxel (15” for “2 weeks and 5-Flurouracil (100”, “by intravenous” for “by intraperitoneal”

For a further data set, the system named is Colo205 xenograft tumors. Put plainly: Colo205 xenograft model of colorectal cancer. The note with it: 3.19.3 10 mg/kg 2×wk i.p., Gemcitabine 50 mg/kg q3dx2 i.v., combination of both. It counts as in vivo. On the procedure:
(§2) The anti-tumor activity of 3.19.3 was evaluated in combination with Gemcitabine in the Colo205 xenograft model of colorectal cancer. Colo205 cells were cultured in flasks as routine until the cells reached sub-confluence. Cell suspensions containing approximately 3×10E6 cells were injected subcutaneously into the flank of female Swiss nude mice. When the tumor volume reached 200 mm^3, the mice were randomized in treatment groups of 8-10 mice and the treatments were initiated. 3.19.3 (10 mg/kg) in saline was injected intraperitoneally, twice per week for 2 weeks. Gemcitabine (50 mg/kg) was administered by intravenous administration following a q3d schedule. The dimensions of each tumor and body weights were measured at least twice per week. The volume of the tumor was calculated as: Volume=Length×(Width)×0.5 (cm^3). […] The % tumor growth inhibition achieved is as follows: […]

The test system of a further data set is HT-29 xenograft tumors. Put plainly: HT-29 xenograft model of colorectal cancer. It counts as in vivo. To be noted: 3.19.3 10 mg/kg 2×wk i.p., Irinotecan 35 mg/kg/week i.v., combination of both. The protocol:
as §2, with “Irinotecan” for “Gemcitabine”, “HT-29” for “Colo205”, “Irinotecan (35” for “Gemcitabine (50”, “weekly” for “q3d”

A further data set concerns H460 xenograft tumors. Format: in vivo. The note with it: 3.19.3 10 mg/kg 2×wk i.p., Oxaliplatin 5 mg/kg/week i.p., combination of both. The protocol: as §1, with “Oxaliplatin” for “5-Fluoruracil (5FU)”, “H460” for “LoVo”, “lung” for “colorectal”, “weeks. Oxaliplatin (5” for “weeks and 5-Flurouracil (100”
The subject of data set [2] is collagen induced arthritis.
Data set [3] relates to collagen-induced arthritis. The experiment in a line: Collagen-induced arthritis (CIA), dose response (Example 11). It counts as in vivo, male DBA/1 mice.
Data set [4] in a line: Differential Scanning Calorimetry (DSC) analysis. Format: physicochemical. The note with it: 1 g/L antibody in 10 mM histidine, pH 6.0.
The nature of data set [5]: Stability study: rate of aggregation of antibody formulations. Format: physicochemical. The note with it: 10 mg/ml in 10 mM histidine pH 6.0, two weeks. On the procedure: Samples of the aforementioned formulations were incubated at either 25° C. or 40° C. for two weeks. As a measure of stability, the rate of aggregation (% aggregation/mth) was calculated after the two week time point.

Where [6] appears, read: means ± SEM, 3.19.3 10 mg/kg i.p every 3 days, hIgG i.p, Prednisolone 3 mg/kg p.o daily, 14 days from disease onset.
Setting [7] is: 3 mg/kg po daily for 14 days from disease onset.

Entries after “also recorded” stand apart in the source; their conditions may differ. Where two headings read alike, the source gives them in different places. Marks after values point to notes of the source that are not given here.

Turning to `O=c1[nH]cc(F)c(=O)[nH]1` [5-flurouracil, 5-Flurouracil], the “% tumor growth inhibition” value with LoVo xenograft tumors and in the data set on LoVo xenograft tumors (listed as 5 FU) was 62% throughout.

Turning to `CCOc1cc2ncc(C(N)=O)c(Nc3ccc(F)cc3F)c2cc1N1CCN(C)CC1` [AZD6495, 4-[(2,4-difluorophenyl)amino]-7-ethoxy-6-(4-methylpiperazin-1-yl)quinoline-3-carboxamide], the entries for the “% tumor growth inhibition” value (in data set [1]; with MCF7 xenograft tumors) were 25% and 32%, respectively.

With `CC(=O)O[C@@]12CO[C@@H]1C[C@H](O)[C@@]1(C)C(=O)[C@H](O)C3=C(C)[C@@H](OC(=O)[C@H](O)[C@@H](NC(=O)OC(C)(C)C)c4ccccc4)C[C@@](O)([C@@H](OC(=O)c4ccccc4)[C@H]21)C3(C)C` [Docetaxel], the “% tumor growth inhibition” value in the data set with Calu6 xenograft tumors stood at 43%.

With `Nc1ccn([C@@H]2O[C@H](CO)[C@@H](O)C2(F)F)c(=O)n1` [Gemcitabine], in the data set with Colo205 xenograft tumors, the “% tumor growth inhibition” value was determined as 8%.

Take `CCc1c2c(nc3ccc(OC(=O)N4CCC(N5CCCCC5)CC4)cc13)-c1cc3c(c(=O)n1C2)COC(=O)[C@]3(O)CC` [Irinotecan]: the “% tumor growth inhibition” value in the data set on HT-29 xenograft tumors is listed as 56%.

Regarding `O=C1[O][Pt]2([NH][C@@H]3CCCC[C@H]3[NH]2)[O]C1=O` [Oxaliplatin], the “% tumor growth inhibition” value in the data set with H460 xenograft tumors was 35%.

Regarding `C[C@]12C=CC(=O)C=C1CC[C@@H]1[C@@H]2[C@@H](O)C[C@@]2(C)[C@H]1CC[C@]2(O)C(=O)CO` [Prednisolone], the “histopathological evaluation of arthropathy lesions (in words)” value in data set [2] (3.19.3 10 mg/kg, Human IgG isotype control, Prednisolone 3 mg/kg) was “marked reduction in the incidence and severity of all arthropathy lesions”. Also, in data set [2] (setting [6]), the “% Inhibition (of AUC of clinical disease progression)” value was 76.1% ± 9.6% and the “Area Under Curve (AUC) of clinical disease progression” value is given as 24.5 ± 9.6. In [3] (setting [7]), the “% inhibition (AUC of Clinical Score)” value was 78% +/− 7%* and the “AUC of Clinical Score” value is reported as 41 +/− 08. Also, the “CD31+ microvessel density in synovium (in words)” value in [3] (3.19.3 at 1 and 10 mg/kg, prednisolone 3 mg/kg) is “significant reduction in microvessel density; also recorded: significant reduction in the presence of microvessels”. For the same molecule, in [3] (Prednisolone 3 mg/kg p.o.), the “incidence and severity of all measures (in words)” value was “marked reduction in the incidence and severity of all measures”.

B1: MEDI1/5 IgG1: heavy and light chains SEQ ID Nos. 7 and 3 in IgG1 format (antibody)
VH: QVQLVESGGGVVQPGRSLRLSCAASGFTFTNYGMHWVRQAPGKGLEWVAVISHDGNNKYYVDSVKGRFTISRDNSKNTLYLQMNSLRAEDTAVYYCAREGIDFWSGLNWFDPWGQGTLVTVSS
light: EIVLTQSPGTLSLSPGERATLSCRASQSITGSYLAWYQQKPGQAPRLLITGASSWATGIPDRFSGSGSGTDFTLTISRLEPEDFAVYYCQQYSSSPITFGQGTRLEIKRTVAAPSVFIFPPSDEQLKSGTASVVCLLNNFYPREAKVQWKVDNALQSGNSQESVTEQDSKDSTYSLSSTLTLSKADYEKHKVYACEVTHQGLSSPVTKSFNRGEC
modifications: IgG1 format
Turning to B1, in [4], the melting temperature entry was “about 76 °C”. Besides, in data set [5], the “% Agg/mth @ 25° C.” value is recorded as 0.21 % Agg/mth and the “% Agg/mth @ 40° C.” value stood at 0.21 % Agg/mth.

B2: MEDI1/5 IgG2: heavy and light chains SEQ ID Nos. 7 and 3 in IgG2 format (antibody)
VH: QVQLVESGGGVVQPGRSLRLSCAASGFTFTNYGMHWVRQAPGKGLEWVAVISHDGNNKYYVDSVKGRFTISRDNSKNTLYLQMNSLRAEDTAVYYCAREGIDFWSGLNWFDPWGQGTLVTVSS
light: EIVLTQSPGTLSLSPGERATLSCRASQSITGSYLAWYQQKPGQAPRLLITGASSWATGIPDRFSGSGSGTDFTLTISRLEPEDFAVYYCQQYSSSPITFGQGTRLEIKRTVAAPSVFIFPPSDEQLKSGTASVVCLLNNFYPREAKVQWKVDNALQSGNSQESVTEQDSKDSTYSLSSTLTLSKADYEKHKVYACEVTHQGLSSPVTKSFNRGEC
modifications: IgG2 format
Take B2: the melting temperature result in data set [4] is “about 76 °C”. The “behaviour after melting in DSC (in words)” value in data set [4] (two independent trials) is recorded as “subsequently falls out of solution”. In addition, in [5], the “% Agg/mth @ 25° C.” value is 0.61 % Agg/mth and the “% Agg/mth @ 40° C.” value was determined as 0.82 % Agg/mth.

For the origin of these results see US8507656B2, “Stabilized angiopoietin-2 antibodies and uses thereof” (MedImmune Limited, priority 2008, dated 2013).
